# According to patent publication US11492362B1, “Pyridine derivatives for the treatment of hyperproliferative diseases” (King Abdulaziz University, priority 2022, dated 2022):
# Legend:
# [1] = test system: Leukemia HL-60 cell line; experiment: Cell cycle analysis, PI staining and DNA flow cytometry; format: cell-based, human; conditions: HL-60, compound at its IC50 concentration
# Protocol: (§1) For cell cycle analysis, cell pellets were fixed with 70% ethanol on ice for 15 min and collected again. The collected pellets were incubated with propidium iodide (PI) staining solution ([…], 0.1 mg/mL RNaseA, 0.05% Triton X-100) at room temperature for 1 hour and analyzed by Gallios® flow cytometer (Beckman Coulter, Brea, Calif., USA). Apoptosis detection was performed by FITC Annexin V/PI commercial kit (Becton Dickenson, Franklin Lakes, N.J., USA) following the manufacturer's protocol. The samples were analyzed by fluorescence-activated cell sorting (FACS) with a Gallios® flow cytometer (Beckman Coulter, Brea, Calif., USA) within 1 h after staining. Data were analyzed using Kaluzav® 1.2 (Beckman Coulter).
# Cell cycle analysis was assessed in Leukemia HL-60 cell line after staining the nuclei with propidium iodide (PI) followed by DNA flow cytometry analysis.
# [2] = test system: Leukemia HL-60 cells; experiment: Annexin V-FITC/PI apoptosis detection; format: cell-based, human; conditions: HL-60, Annexin V-FITC/PI
# Protocol: as §1
# Moreover, compound 4 increased the percentage of late apoptotic cells by 43.07-more than untreated control.
# [3] = test system: HL-60; experiment: Confluency analysis; format: cell-based, human; conditions: HL-60, 50 μg/mL
# [4] = test system: caspase 3/7 in Leukemia HL-60 cells; experiment: Activated caspase 3/7 assay; format: cell-based, human; conditions: HL-60, IC50 concentration, 24 h, flow cytometry; untreated control 0.54%
# Protocol: Activities of caspases-3 and -7 were measured using DRG Caspase-3 (human) ELISA (EIA-4860) kit (DRG International Inc., USA), Invitrogen. Caspase-7 (Active) (human) ELISA kit, Catalog #KHO1091 (96 tests) (Invitrogen Corporation, USA) according to the manufacturer's instructions.
# The activation of caspase 3/7 was determined in compound 4 treated Leukemia HL-60 cells at IC50 concentration using green flow cytometry assay for 24 h.
# [5] = test system: HL-60 (leukemia) cell lines; experiment: In vitro cytotoxicity, MTT assay; format: cell-based; conditions: Homo sapiens, 72 h; HL-60, MTT, 3 days
# Protocol: Cells suspended in medium (2×10^4 cells/mL) were plated in 96-well culture plates and incubated at 37° C. in a 5% CO2 incubator. After 12 h, the test sample (2 μL) was added to the cells (2×10^4) in 96-well plates and cultured at 37° C. for 3 days. The cultured cells were mixed with 20 μL of MTT solution and incubated for 4 h at 37° C. The supernatant was carefully removed from each well and 100 μL of DMSO was added to each well to dissolve the formazan crystals which were formed by the cellular reduction of MTT. After mixing with a mechanical plate mixer, the absorbance of each well was measured by a microplate reader using a test wavelength of 570 nm. The results were expressed as the IC50 (μM), which induces a 50% inhibition of cell growth of the treated cells when compared to the growth of control cells. Each experiment was performed at least 3 times. There was a good reproducibility between the replicate wells with standard error [46].
# In vitro cytotoxicity of the synthesized compounds 4, 6, and 7 was determined using the MTT assay against HL-60 (leukemia) cell lines. Doxorubicin (Doxo) one of the most efficient anticancer agentd was utilized as a reference compound in this study.
smiles,measurement,setting,value
"c1cc(-c2ccn3cnnc3n2)nc(-c2ccn3cnnc3n2)c1 [Compound 4, 2,6-bis([1,2,4]triazolo[4,3-a]pyrimidin-7-yl)pyridine]",percentage of cells at pre-G1 peak,[1]; control 1.42%,19.32%
same,cell percentage in the G2/M phase,[1]; untreated control 16.80%,51.84%
same,cell survival percentage in comparison with untreated control,[2],sharp decrease
same,increase of percentage of early apoptotic cells versus untreated control,[2],8.14 fold
same,increase of percentage of late apoptotic cells versus untreated control,[2],43.07
same,cell morphology in the image,[3],"round, high-contrast objects"
same,level of caspase 3/7 percentage,[4],10.04%
same,IC50,[5],3.28 ± 0.13 µg/mL
"COc1cccc2c1C(=O)c1c(O)c3c(c(O)c1C2=O)C[C@@](O)(C(=O)CO)C[C@@H]3O[C@H]1C[C@H](N)[C@H](O)[C@H](C)O1 [Dox, Doxorubicin, reference compound]",IC50,[5],2.2 ± 0.08 µg/mL
"N#Cc1c(N/C=C\C(=O)c2cccc(C(=O)/C=C\Nc3sc4c(c3C#N)CCCC4)n2)sc2c1CCCC2 [Compound 7, 2,2′-(((1Z,1′Z)-pyridine-2,6-diylbis(3-oxoprop-1-ene-3,1-diyl))bis(azanediyl))bis(4,5,6,7-tetrahydrobenzo[b]thiophene-3-carbonitrile)]",IC50,[5],28.5 ± 1.56 µg/mL
"CN(C)/C=C/C(=O)c1cccc(C(=O)/C=C\Nc2sc3c(c2C#N)CCCC3)n1 [Compound 6, 2-(((Z)-3-(6-((E)-3-(dimethylamino)acryloyl)pyridin-2-yl)-3-oxoprop-1-en-1-yl)amino)-4,5,6,7-tetrahydrobenzo[b]thiophene-3-carbonitrile]",IC50,[5],3.66 ± 0.11 µg/mL
"CN(C)C=CC(=O)c1cccc(C(=O)C=CN(C)C)n1 [Compound 2, 2,6-Bis(3-dimethylamino-1-oxoprop-2-en-yl)pyridine]",melting point,,236.4 to 237.2 °C
